Laboratory results reported in patent publication US8604040B2 (priority 2010, dated 2013).
Where two headings read alike, the source gives them in different places. Marks after values point to notes of the source that are not given here.

Experiment: log P by HPLC (EEC Directive 79/831 Annex V.A8)
Type: physicochemical
[1] = [b] LC-MS, acidic range, pH 2.7, 0.1% aqueous formic acid and acetonitrile
[2] = [c] LC-MS, neutral range, pH 7.8, 0.001 molar aqueous ammonium hydrogencarbonate and acetonitrile
[3] = HPLC, pH 2.7, given in the preparation examples, read-out: logP (pH2.7)

SMILES | log P [1] | log P [2] | other results
Cc1cc(C(F)(F)F)nn1CC(=O)N1CCC(c2cccc(C(=O)NC(C)c3ccccc3Cl)n2)CC1 (racemic) [Example 16] | 3.82 | 3.75 | 
CCCCCC(C)NC(=O)c1cccc(C2CCN(C(=O)Cn3nc(C(F)(F)F)cc3C)CC2)n1 (racemic) [Example 17] | 4.17 | 4.13 | 
Cc1cc(C(F)(F)F)nn1CC(=O)N1CCC(c2cccc(C(=O)NC3CCc4ccccc43)n2)CC1 (racemic) [Example 19] | 3.56^[b]; 3.56^[c] | 3.56^[b]; 3.56^[c] | 
CCOC(=O)c1cccc(C2=CCN(C(=O)OC(C)(C)C)CC2)n1 [1′-tert-butyl 6-ethyl-3′,6′-dihydro-2,4′-bipyridine-1′,6(2′H)-dicarboxylate] |  |  | logP (pH2.7) (pH 2.7, given in the preparation examples): 3.48
CCOC(=O)c1cccc(C2CCNCC2)n1 [4-[6-(Ethoxycarbonyl)pyridin-2-yl]piperidinium chloride] |  |  | chromatographic logP [3]: 0.55
O=C(O)c1cccc(N2CCN(C(=O)Cn3nc(C(F)F)cc3C(F)F)CC2)n1 [6-(4-{[3,5-Bis(difluoromethyl)-1H-pyrazol-1-yl]acetyl}piperazin-1-yl)pyridine-2-carboxylic acid] |  |  | chromatographic logP [3]: 0.68
CC(C)(C)OC(=O)N1CCC(c2cccc(C(=O)O)n2)CC1 [6-[1-(tert-Butoxycarbonyl)piperidin-4-yl]pyridine-2-carboxylic acid] |  |  | chromatographic logP [3]: 1.78
CCOC(=O)c1cccc(N2CCN(C(=O)Cn3nc(C(F)F)cc3C(F)F)CC2)n1 [Ethyl 6-(4-{[3,5-bis(difluoromethyl)-1H-pyrazol-1-yl]acetyl}piperazin-1-yl)pyridine-2-carboxylate] |  |  | chromatographic logP [3]: 2.71
CCOC(=O)c1cccc(C2CCN(C(=O)OC(C)(C)C)CC2)n1 [Ethyl 6-[1-(tert-butoxycarbonyl)piperidin-4-yl]pyridine-2-carboxylate] |  |  | chromatographic logP [3]: 3.29
CN(Cc1ccccc1Br)C(=O)c1cccc(C2CCN(C(=O)Cn3nc(C(F)F)cc3C(F)F)CC2)n1 [Example 1] | 3.32 | 3.37 | 
Cc1cc(C(F)(F)F)nn1CC(=O)N1CCC(c2cccc(C(=O)N(C)Cc3ccccc3Br)n2)CC1 [Example 2] | 3.47 | 3.49 | 
O=C(NCc1ccccc1Br)c1cccc(C2CCN(C(=O)Cn3nc(C(F)F)cc3C(F)F)CC2)n1 [Example 4] | 3.44 | 3.47 | 
Cc1cc(C(F)(F)F)nn1CC(=O)N1CCC(c2cccc(C(=O)NCc3ccccc3Br)n2)CC1 [Example 5] | 3.59^[b]; 3.59^[c] | 3.59^[b]; 3.59^[c] | 
Cc1cc(C(F)(F)F)nn1CC(=O)N1CCC(c2cccc(C(=O)OCCCC(F)(F)F)n2)CC1 [Example 6] | 3.37^[b] |  | 
O=C(OCc1ccccc1OC(F)(F)F)c1cccc(C2CCN(C(=O)Cn3nc(C(F)F)cc3C(F)F)CC2)n1 [Example 7] | 3.98^[b] |  | 
Cc1cc(C(F)(F)F)nn1CC(=O)N1CCC(c2cccc(C(=O)OCc3ccccc3OC(F)(F)F)n2)CC1 [Example 8] | 4.06^[b] |  | 
O=C(OCc1ccccc1OC(F)(F)F)c1cccc(C2CCN(C(=O)Cn3nc(C(F)F)cc3C(F)F)CC2)n1 [Example 9] | 3.89^[b] |  | 
Cc1cc(C(F)(F)F)nn1CC(=O)N1CCC(c2cccc(C(=O)N(C)c3ccccc3Cl)n2)CC1 [Example 10] | 3.18 | 3.2 | 
Cc1cc(C(F)(F)F)nn1CC(=O)N1CCC(c2cccc(C(=O)N(C)C3CCCCC3)n2)CC1 [Example 11] | 3.15 | 3.18 | 
Cc1cc(C(F)(F)F)nn1CC(=O)N1CCC(c2cccc(C(=O)N(C)C3CCCc4ccccc43)n2)CC1 (centres unmarked) [Example 12, N-Methyl-6-(1-{[5-methyl-3-(trifluoromethyl)-1H-pyrazol-1-yl]acetyl}piperidin-4-yl)-N-(1,2,3,4-tetrahydronaphthalen-1-yl)pyridine-2-carboxamide] |  |  | chromatographic logP (HPLC (LC-MS), [b] LC-MS, acidic range, pH 2.7, 0.1% aqueous formic acid and acetonitrile, read-out: log P): 3.61; chromatographic logP [3]: 3.61

SMILES | log P [1] | log P [2] | other results
Cc1cc(C(F)(F)F)nn1CC(=O)N1CCC(c2cccc(C(=O)N(C)Cc3ccc(Cl)cc3Cl)n2)CC1 [Example 13] | 3.85^[b]; 3.85^[c] | 3.85^[b]; 3.85^[c] | 
Cc1cc(C(F)(F)F)nn1CC(=O)N1CCC(c2cccc(C(=O)N(C)Cc3ccccn3)n2)CC1 [Example 14] |  | 2.23^[c] | 
Cc1cc(C(F)(F)F)nn1CC(=O)N1CCC(c2cccc(C(=O)N3CCOc4ccccc43)n2)CC1 [Example 15] | 3.04^[b]; 3.04^[c] | 3.04^[b]; 3.04^[c] | 
Cc1cc(C(F)(F)F)nn1CC(=O)N1CCC(c2cccc(C(=O)NC3CCCCC3)n2)CC1 [Example 18] |  | 3.46^[c] | 
CCCCCCCNC(=O)c1cccc(C2CCN(C(=O)Cn3nc(C(F)(F)F)cc3C)CC2)n1 [Example 20] | 4.25 | 4.24 | 
Cc1cc(C(F)(F)F)nn1CC(=O)N1CCC(c2cccc(C(=O)NCc3ccc(Cl)cc3Cl)n2)CC1 [Example 21] | 4.1 | 4 | 
Cc1cc(C(F)(F)F)nn1CC(=O)N1CCC(c2cccc(C(=O)NCc3ccc(F)cc3F)n2)CC1 [Example 22] | 3.36^[b]; 3.36^[c] | 3.36^[b]; 3.36^[c] | 
Cc1cc(C(F)(F)F)nn1CC(=O)N1CCC(c2cccc(C(=O)NCc3ccccc3Cl)n2)CC1 [Example 23] | 3.49 | 3.52 | 
Cc1cc(C(F)(F)F)nn1CC(=O)N1CCC(c2cccc(C(=O)NCc3c(F)cccc3F)n2)CC1 [Example 24] | 3.33 | 3.26 | 
Cc1cc(C(F)(F)F)nn1CC(=O)N1CCC(c2cccc(C(=O)NCc3ccccn3)n2)CC1 [Example 25] | 1.97 | 2.44 | 
Cc1cc(C(F)(F)F)nn1CC(=O)N1CCC(c2cccc(C(=O)NCc3cccs3)n2)CC1 [Example 26] | 3.15 | 3.1 | 
Cc1ccsc1CNC(=O)c1cccc(C2CCN(C(=O)Cn3nc(C(F)(F)F)cc3C)CC2)n1 [Example 27] | 3.29 | 3.34 | 
Cc1cc(C(F)(F)F)nn1CC(=O)N1CCC(c2cccc(C(=O)Nc3c(F)cccc3F)n2)CC1 [Example 28] | 3.13 | 3.15 | 
Cc1cc(C(F)(F)F)nn1CC(=O)N1CCC(c2cccc(C(=O)Nc3cccc4ccccc34)n2)CC1 [Example 29] | 3.94 |  | 
Cc1cc(C(F)(F)F)nn1CC(=O)N1CCC(c2cccc(C(=O)Nc3ccc4ccccc4c3)n2)CC1 [Example 30] | 4.09 | 4.11 | 
Cc1cc(C(F)(F)F)nn1CC(=O)N1CCC(c2cccc(C(=O)Nc3cccc4cccnc34)n2)CC1 [Example 31] | 4.02 | 4.04 | 
Cc1cc(C(F)(F)F)nn1CC(=O)N1CCC(c2cccc(C(=O)OC(C)c3ccccc3Cl)n2)CC1 (centres unmarked) [Example 32] | 4.12^[b] |  | 
Cc1cc(C(F)(F)F)nn1CC(=O)N1CCC(c2cccc(C(=O)OC3C=CCCC3)n2)CC1 (centres unmarked) [Example 33] | 3.64^[b] |  | 
Cc1cc(C(F)(F)F)nn1CC(=O)N1CCC(c2cccc(C(=O)OC3CCCCC3)n2)CC1 [Example 34] | 3.9^[b] |  | 
Cc1cc(C(F)(F)F)nn1CC(=O)N1CCC(c2cccc(C(=O)OC3CCCc4ccccc43)n2)CC1 (centres unmarked) [Example 35] | 4.15^[b] |  | 

SMILES | log P [1] | log P [2] | other results
Cc1cc(C(F)(F)F)nn1CC(=O)N1CCC(c2cccc(C(=O)OCC#Cc3ccccc3Cl)n2)CC1 [Example 36] | 4.03^[b] |  | 
Cc1cc(C(F)(F)F)nn1CC(=O)N1CCC(c2cccc(C(=O)OCC(C)(C)C)n2)CC1 [Example 37] | 3.86^[b] |  | 
Cc1cc(C(F)(F)F)nn1CC(=O)N1CCC(c2cccc(C(=O)OCC3CCCCC3)n2)CC1 [Example 38] | 4.38^[b] |  | 
C=CCCCCOC(=O)c1cccc(C2CCN(C(=O)Cn3nc(C(F)(F)F)cc3C)CC2)n1 [Example 39] | 3.86^[b] |  | 
CCCCCCCOC(=O)c1cccc(C2CCN(C(=O)Cn3nc(C(F)(F)F)cc3C)CC2)n1 [Example 40] | 4.73^[b] |  | 
COCCOC(=O)c1cccc(C2CCN(C(=O)Cn3nc(C(F)(F)F)cc3C)CC2)n1 [Example 41] | 2.46^[b] |  | 
Cc1cc(C(F)(F)F)nn1CC(=O)N1CCC(c2cccc(C(=O)OCc3ccc(F)cc3F)n2)CC1 [Example 42] | 3.6^[b] |  | 
Cc1cc(C(F)(F)F)nn1CC(=O)N1CCC(c2cccc(C(=O)OCc3c(F)cc(F)cc3F)n2)CC1 [Example 43] | 3.69^[b] |  | 
Cc1ccccc1COC(=O)c1cccc(C2CCN(C(=O)Cn3nc(C(F)(F)F)cc3C)CC2)n1 [Example 44] | 3.8^[b] |  | 
Cc1cc(C(F)(F)F)nn1CC(=O)N1CCC(c2cccc(C(=O)OCc3ccccc3C(F)(F)F)n2)CC1 [Example 45] | 3.97^[b] |  | 
Cc1cc(C(F)(F)F)nn1CC(=O)N1CCC(c2cccc(C(=O)OCc3ccccc3Cl)n2)CC1 [Example 46] | 3.84^[b] |  | 
Cc1cc(C(F)(F)F)nn1CC(=O)N1CCC(c2cccc(C(=O)OCc3ccccc3F)n2)CC1 [Example 47] | 3.52^[b] |  | 
Cc1cc(C(F)(F)F)nn1CC(=O)N1CCC(c2cccc(C(=O)OCc3c(F)cccc3F)n2)CC1 [Example 48] | 3.51^[b] |  | 
Cc1cccnc1COC(=O)c1cccc(C2CCN(C(=O)Cn3nc(C(F)(F)F)cc3C)CC2)n1 [Example 49] | 2.23^[b] |  | 
Cc1ccnc(COC(=O)c2cccc(C3CCN(C(=O)Cn4nc(C(F)(F)F)cc4C)CC3)n2)c1 [Example 50] | 3.67^[b] |  | 
Cc1cc(C(F)(F)F)nn1CC(=O)N1CCC(c2cccc(C(=O)Oc3cccc4ccccc34)n2)CC1 [Example 51] | 3.97^[b] |  | 
Cc1cc(C(F)(F)F)nn1CC(=O)N1CCC(c2cccc(C(=O)Oc3ccc4ccccc4c3)n2)CC1 [Example 52] | 3.9^[b] |  | 
Cc1cc(C(F)(F)F)nn1CC(=O)N1CCC(c2cccc(C(=O)SC3CCCCC3)n2)CC1 [Example 53] |  | 4.83^[c] | 
Cc1cc(C(F)(F)F)nn1CC(=O)N1CCC(c2cccc(C(=O)SCc3ccc(Cl)cc3Cl)n2)CC1 [Example 55] | 5.17 | 5.21 | 
